What was measured:
Type in all cases: cell-based
Microsporum canis = experiment: Antifungal activity in vitro, resazurin growth inhibition screen: Microsporum canis; conditions: Microsporum canis B68128; for IC50: read-out: Inf. B pIC50 (converted)
Outline: (§1)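 Resazurin growth read-out; 100% = untreated culture, 0% = RPMI-MOPS only. Inoculum 10^3 cfu/well from cryopreserved stock diluted 1/1000. Compound 2- or 4-fold dilution series, top in-test conc 64 μM.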

[1] = test system: Trichophyton mentagrophytes; experiment: Antifungal activity in vitro, resazurin growth inhibition screen: Trichophyton mentagrophytes; conditions: Trichophyton mentagrophytes B70554; for IC50: read-out: Inf. G pIC50 (converted)
Outline: as §1

Trichophyton rubrum = experiment: Antifungal activity in vitro, resazurin growth inhibition screen: Trichophyton rubrum; conditions: Trichophyton rubrum B68183; for IC50: read-out: Inf. C pIC50 (converted)
Outline: as §1

Scedosporium apiospermum = experiment: Antifungal activity in vitro, resazurin growth inhibition screen: Scedosporium apiospermum; conditions: Scedosporium apiospermum IHEM3817; for IC50: read-out: Inf. H pIC50 (converted)
Procedure: (§2) The standard susceptibility screen was performed in 96-well plates (U-bottom, Greiner Bio-One). Serial dilutions (2-fold or 4-fold) of 20 mM compound stock solutions were made in 100% DMSO, followed by an intermediate dilution step in water. These serial dilutions (10 μl) were then spotted onto test-plates that could be stored in the dark at 4° C. for a maximum period of 2 weeks. An adequate broad dose-range was included with 64 μM as the highest in-test concentration. […] The different fungal species/isolates (Table 3a) were cryopreserved and 1/1000 diluted in medium just prior to use. A standard inoculum of 200 μl containing 10^3 colony-forming unit (cfu) was then added to each well. A positive control (100% growth=fungal culture without antifungal) and a negative control (0% growth=RPMI-MOPS medium) were included on each plate.

Scedosporium prolificans = experiment: Antifungal activity in vitro, resazurin growth inhibition screen: Scedosporium prolificans; conditions: Scedosporium prolificans IHEM21157; for IC50: Lomentospora prolificans, read-out: Inf. I pIC50 (converted)
Procedure: as §2

Sporothrix schenkii = experiment: Antifungal activity in vitro, resazurin growth inhibition screen: Sporothrix schenkii; conditions: Sporothrix schenkii B62482; for IC50: read-out: Inf. A pIC50 (converted)
Outline: as §1

Aspergillus fumigatus = experiment: Antifungal activity in vitro, resazurin growth inhibition screen: Aspergillus fumigatus; conditions: Aspergillus fumigatus B42928; for IC50: read-out: Inf. E pIC50 (converted)
Outline: as §1

Candida parapsilosis = experiment: Antifungal activity in vitro, resazurin growth inhibition screen: Candida parapsilosis; conditions: Candida parapsilosis B66126; for IC50: Lodderomyces parapsilosis, read-out: Inf. D pIC50 (converted)
Outline: as §1

Cryptococcus neoformans = experiment: Antifungal activity in vitro, resazurin growth inhibition screen: Cryptococcus neoformans; conditions: Cryptococcus neoformans B66663; for IC50: read-out: Inf. F pIC50 (converted)
Outline: as §1

Rhizopus oryzae = experiment: Antifungal activity in vitro, resazurin growth inhibition screen: Rhizopus oryzae; conditions: Rhizopus oryzae IHEM5223; for IC50: Rhizopus arrhizus, read-out: Inf. J pIC50 (converted)
Procedure: as §2

Rhizomucor miehei = experiment: Antifungal activity in vitro, resazurin growth inhibition screen: Rhizomucor miehei; conditions: Rhizomucor miehei IHEM13391; for IC50: read-out: Inf. K pIC50 (converted)
Procedure: as §2

Row | SMILES | Inf. B pIC50 (Microsporum canis) | Inf. G pIC50 [1] | Inf. C pIC50 (Trichophyton rubrum) | Inf. H pIC50 (Scedosporium apiospermum) | Inf. I pIC50 (Scedosporium prolificans) | Inf. A pIC50 (Sporothrix schenkii) | Inf. E pIC50 (Aspergillus fumigatus) | Inf. D pIC50 (Candida parapsilosis) | Inf. F pIC50 (Cryptococcus neoformans) | Inf. J pIC50 (Rhizopus oryzae) | Inf. K pIC50 (Rhizomucor miehei) | also measured
1 | Br.Clc1cccc2c1CNC(c1ccc3c(c1)CCC3)c1cccn1-2 (stereo not shown) [Compound 13, 7-chloro-4-(2,3-dihydro-1H-inden-5-yl)-5,6-dihydro-4H-pyrrolo[1,2-a][1,4]benzo-diazepine .HBr] | 6.36 | 6.95 | 6.47 | 4.52 | 5.72 | 5.15 | 5.70 | 5.52 | 5.30 | <4.19 | <4.19 | –
2 | Clc1cc(Cl)c2c(c1)-n1cccc1C(c1ccc3c(c1)CCC3)=NC2 [Compound 23, 7,9-dichloro-4-(2,3-dihydro-1H-inden-5-yl)-6H-pyrrolo[1,2-a][1,4]benzodiazepine] | – | – | – | – | – | – | – | – | – | – | – | IC50 (Microsporum canis): 1 µM; IC50 [1]: 0.794 µM; IC50 (Trichophyton rubrum): 0.676 µM; IC50 (Scedosporium apiospermum): 24 µM; IC50 (Scedosporium prolificans): 0.603 µM; IC50 (Sporothrix schenkii): 33.9 µM; IC50 (Aspergillus fumigatus): 0.912 µM; IC50 (Candida parapsilosis): 2 µM; IC50 (Cryptococcus neoformans): 0.457 µM; IC50 (Rhizopus oryzae): > 64.6 µM; IC50 (Rhizomucor miehei): > 64.6 µM
3 | Cl.Clc1cccc2c1CNC(c1ccc3c(c1)CCOC3)c1cccn1-2 (stereo not shown) [Compound 28, 7-chloro-4-(3,4-dihydro-1H-2-benzopyran-6-yl)-5,6-dihydro-4H-pyrrolo[1,2-a]-[1,4]benzodiazepine .HCl] | 6.24 | 6.29 | 6.66 | 4.97 | 4.63 | <4.19 | 5.99 | 5.53 | 4.71 | <4.19 | 4.39 | –
4 | Clc1cccc2c1CN=C(c1ccc3c(c1)CCOC3)c1cccn1-2 [Compound 37, 7-chloro-4-(3,4-dihydro-1H-2-benzopyran-6-yl)-6H-pyrrolo[1,2-a][1,4]benzo-diazepine] | 6.62 | 6.47 | 6.89 | 4.48 | 5.85 | 5.26 | 6.77 | 5.79 | 5.88 | <4.19 | <4.19 | –
5 | Fc1cccc2c1CN=C(c1ccc3c(c1)CCOC3)c1cccn1-2 [Compound 39, 4-(3,4-dihydro-1H-2-benzopyran-6-yl)-7-fluoro-6H-pyrrolo[1,2-a][1,4]benzo-diazepine] | 6.36 | 6.54 | 6.89 | 5.40 | 5.76 | 4.95 | 6.77 | 5.83 | 5.21 | <4.19 | 4.38 | –
6 | Clc1cc(Cl)c2c(c1)CN=C(c1ccc3c(c1)CCO3)c1cccn1-2 [Compound 48, 8,10-dichloro-4-(2,3-dihydro-5-benzofuranyl)-6H-pyrrolo[1,2-a][1,4]benzo-diazepine] | 6.30 | 6.29 | 6.78 | 4.94 | 5.79 | 5.40 | 5.00 | <4.19 | 5.70 | <4.19 | <4.19 | –
7 | Cl.O=C1CCc2cc(C3NCc4c(Cl)cccc4-n4cccc43)ccc21 (stereo not shown) [Compound 51, 5-(7-chloro-5,6-dihydro-4H-pyrrolo[1,2-a][1,4]benzodiazepin-4-yl)-2,3-dihydro-1H-inden-1-one .HCl] | 5.59 | 5.32 | 5.84 | 4.67 | 5.32 | 4.46 | 5.24 | 4.91 | 4.74 | <4.19 | 4.29 | –
8 | O=C1CCCc2cc(C3=NCc4c(F)cccc4-n4cccc43)ccc21 [Compound 59, 6-(7-fluoro-6H-pyrrolo[1,2-a][1,4]benzodiazepin-4-yl)-3,4-dihydro-1(2H)-naphthalenone] | – | – | – | – | – | – | – | – | – | – | – | IC50 (Microsporum canis): 0.372 µM; IC50 [1]: 0.339 µM; IC50 (Trichophyton rubrum): 0.129 µM; IC50 (Scedosporium apiospermum): 0.741 µM; IC50 (Scedosporium prolificans): 1.48 µM; IC50 (Sporothrix schenkii): 4.27 µM; IC50 (Aspergillus fumigatus): 0.398 µM; IC50 (Candida parapsilosis): 2.75 µM; IC50 (Cryptococcus neoformans): 1.12 µM; IC50 (Rhizopus oryzae): > 12.9 µM; IC50 (Rhizomucor miehei): 1.48 µM
9 | Fc1cc(F)c2c(c1)-n1cccc1C(c1ccc3c(c1)CCC(F)(F)O3)=NC2 [Compound 73, 4-(2,2-difluoro-3,4-dihydro-2H-1-benzopyran-6-yl)-7,9-difluoro-6H-pyrrolo[1,2-a]-[1,4]benzodiazepine] | – | – | – | – | – | – | – | – | – | – | – | IC50 (Microsporum canis): 9.33 µM; IC50 [1]: 32.4 µM; IC50 (Trichophyton rubrum): 32.4 µM; IC50 (Sporothrix schenkii): 31.6 µM; IC50 (Aspergillus fumigatus): > 64.6 µM; IC50 (Candida parapsilosis): 2.14 µM; IC50 (Cryptococcus neoformans): 4.68 µM
10 | CN1CCc2cc(C3=NCc4c(F)cccc4-n4cccc43)ccc21 [Compound 81, 4-(2,3-dihydro-1-methyl-1H-indol-5-yl)-7-fluoro-6H-pyrrolo[1,2-a][1,4]benzo-diazepine] | 5.28 | 4.90 | 5.65 | – | – | 4.49 | 4.39 | 4.60 | 5.29 | – | – | –
11 | Clc1cccc2c1-n1cccc1C(c1ccc3c(c1)CCOC3)=NC2 [Compound 82, 10-chloro-4-(3,4-dihydro-1H-2-benzopyran-6-yl)-6H-pyrrolo[1,2-a][1,4]benzo-diazepine] | 5.69 | 5.56 | 5.95 | – | – | 5.06 | 5.56 | 4.77 | 5.26 | – | – | –

— patent US9040524B2, “Antifungal 5,6-dihydro-4H-pyrrolo[1,2-a][1,4]-benzodiazepines and 6H-pyrrolo[1,2-a][1,4]benzodiazepines substituted with bicycle benzene derivatives” (JANSSEN PHARMACEUTICA NV, priority 2010, dated 2015)
